# Results reported in PubChem BioAssay AID2060609 (Molecular Pharmacology Branch, DTP, NCI, 2025).
# “And” between values parts separate entries of the source, which are not always exact repeats. Identical values can stand only once.
# System: 855422-203-R-J1-PDC complex spheroids, viability
# Assay: Anticancer human tumor 855422-203-R-J1-PDC patient-derived bladder carcinoma cell line growth inhibition [CLK]
# Conditions: for viability, T/C: stronger effect = lower value
# Outline: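 Patient-derived tumor cells grown as complex spheroids with HUVEC endothelial cells and mesenchymal stem cells, treated with drug combinations. Concentrations descend in half-log steps from near clinical Cmax, or from 10 microM if Cmax unknown.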
# [1] = curve of first compound, second compound 0.0316 µM
# [2] = curve of first compound, second compound 0.1 µM
# [3] = curve of first compound, second compound 0.316 µM
# [4] = curve of first compound, second compound 1 µM
# [5] = curve of first compound, second compound 3.16 µM
# [6] = curve of first compound, second compound 10 µM
# [7] = second compound 0.0316 µM, first compound 0.0316 µM
# [8] = second compound 0.0316 µM, first compound 0.1 µM
# [9] = second compound 0.0316 µM, first compound 0.316 µM
# [10] = second compound 0.0316 µM, first compound 1 µM
# [11] = second compound 0.0316 µM, first compound 3.16 µM
# [12] = second compound 0.0316 µM, first compound 10 µM
# [13] = second compound 0.1 µM, first compound 0.0316 µM
# [14] = second compound 0.1 µM, first compound 0.1 µM
# [15] = second compound 0.1 µM, first compound 0.316 µM
# [16] = second compound 0.1 µM, first compound 1 µM
# [17] = second compound 0.1 µM, first compound 3.16 µM
# [18] = second compound 0.1 µM, first compound 10 µM
# [19] = second compound 0.316 µM, first compound 0.0316 µM
# [20] = second compound 0.316 µM, first compound 0.1 µM
# [21] = second compound 0.316 µM, first compound 0.316 µM
# [22] = second compound 0.316 µM, first compound 1 µM
# [23] = second compound 0.316 µM, first compound 3.16 µM
# [24] = second compound 0.316 µM, first compound 10 µM
# [25] = second compound 1 µM, first compound 0.0316 µM
# [26] = second compound 1 µM, first compound 0.1 µM
# [27] = second compound 1 µM, first compound 0.316 µM
# [28] = second compound 1 µM, first compound 1 µM
# [29] = second compound 1 µM, first compound 3.16 µM
# [30] = second compound 1 µM, first compound 10 µM
# [31] = second compound 3.16 µM, first compound 0.0316 µM
# [32] = second compound 3.16 µM, first compound 0.1 µM
# [33] = second compound 3.16 µM, first compound 0.316 µM
# [34] = second compound 3.16 µM, first compound 1 µM
# [35] = second compound 3.16 µM, first compound 3.16 µM
# [36] = second compound 3.16 µM, first compound 10 µM
# [37] = second compound 10 µM, first compound 0.0316 µM
# [38] = second compound 10 µM, first compound 0.1 µM
# [39] = second compound 10 µM, first compound 0.316 µM
# [40] = second compound 10 µM, first compound 1 µM
# [41] = second compound 10 µM, first compound 3.16 µM
# [42] = second compound 10 µM, first compound 10 µM
# 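Also: spheroids exposed to drugs for seven days before readout.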
# 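For viability, T/C in this document: 100% = DMSO vehicle control wells.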
compound,measurement,setting,value
CC1COCCN1c1cc(C2(S(C)(=N)=O)CC2)nc(-c2ccnc3[nH]ccc23)n1 (stereo not given) + CN1CCN(c2cc(C(=O)Nc3cc4cc(-c5cnn(C)c5)ccc4cn3)ccn2)CC1,IC50,[1],2250 nM
same,IC50,[2],1850 nM
same,IC50,[3],< 31.6 nM
same,IC50,[4],< 31.6 nM
same,IC50,[5],< 31.6 nM
same,IC50,[6],< 31.6 nM
same,"viability, T/C",[7],103%
same,"viability, T/C",[8],117%
same,"viability, T/C",[9],89.6%
same,"viability, T/C",[10],93%
same,"viability, T/C",[11],32%
same,"viability, T/C",[12],10.6%
same,"viability, T/C",[13],70.6%
same,"viability, T/C",[14],91%
same,"viability, T/C",[15],80.3%
same,"viability, T/C",[16],80.1%
same,"viability, T/C",[17],24%
same,"viability, T/C",[18],12.2%
same,"viability, T/C",[19],9.48%
same,"viability, T/C",[20],14%
same,"viability, T/C",[21],7.7%
same,"viability, T/C",[22],6%
same,"viability, T/C",[23],5.18%
same,"viability, T/C",[24],3.25%
same,"viability, T/C",[25],0.34%
same,"viability, T/C",[26],0.27%
same,"viability, T/C",[27],1.14%
same,"viability, T/C",[28],0.17%
same,"viability, T/C",[29],0.14%
same,"viability, T/C",[30],0.19%
same,"viability, T/C",[31],0.75%
same,"viability, T/C",[32],0.61%
same,"viability, T/C",[33],0.62%
same,"viability, T/C",[34],0.51%
same,"viability, T/C",[35],0.85%
same,"viability, T/C",[36],0.37%
same,"viability, T/C",[37],0.44%
same,"viability, T/C",[38],0.31%
same,"viability, T/C",[39],0.9%
same,"viability, T/C",[40],0.36%
same,"viability, T/C",[41],1.72%
same,"viability, T/C",[42],0.63%
COc1ccc([C@@H](O)c2cc(-c3ncnc4cc(N5CCOCC5)ccc34)c(F)cc2Cl)nn1 + CNC(=O)c1ccc(Nc2nc(OC3CCCC3)c3c(-c4ccc5nc(C)oc5c4)c[nH]c3n2)c(OC)c1,IC50,[1],5740 nM
same,IC50,[2],1460 nM
same,IC50,[3],< 31.6 nM
same,IC50,[4],< 31.6 nM
same,IC50,[5],< 31.6 nM
same,IC50,[6],< 31.6 nM
same,"viability, T/C",[7],78.5%
same,"viability, T/C",[8],118%
same,"viability, T/C",[9],95.2%
same,"viability, T/C",[10],82.7%
same,"viability, T/C",[11],71.8%
same,"viability, T/C",[12],31.1%
same,"viability, T/C",[13],55.8%
same,"viability, T/C",[14],55.2%
same,"viability, T/C",[15],44.4%
same,"viability, T/C",[16],47.9%
same,"viability, T/C",[17],48.9%
same,"viability, T/C",[18],22.9%
same,"viability, T/C",[19],24%
same,"viability, T/C",[20],23.9%
same,"viability, T/C",[21],16.8%
same,"viability, T/C",[22],19.2%
same,"viability, T/C",[23],16.3%
same,"viability, T/C",[24],12.3%
same,"viability, T/C",[25],23.3%
same,"viability, T/C",[26],24.6%
same,"viability, T/C",[27],18.3%
same,"viability, T/C",[28],17.4%
same,"viability, T/C",[29],19.5%
same,"viability, T/C",[30],12.1%
same,"viability, T/C",[31],17.7%
same,"viability, T/C",[32],17.7%
same,"viability, T/C",[33],16.3%
same,"viability, T/C",[34],22.1%
same,"viability, T/C",[35],16.6%
same,"viability, T/C",[36],12.4%
same,"viability, T/C",[37],22.1%
same,"viability, T/C",[38],20.9%
same,"viability, T/C",[39],25.1%
same,"viability, T/C",[40],18.4%
same,"viability, T/C",[41],14.4%
same,"viability, T/C",[42],8.91%
C=CC(=O)N1CCN(c2nc(=O)n(-c3c(C)ccnc3C(C)C)c3nc(-c4c(O)cccc4F)c(F)cc23)C(C)C1 (stereo not given),"viability, T/C",compound 0.0316 µM,91.5% and 117%
same,"viability, T/C",compound 0.1 µM,95.7% and 105%
same,"viability, T/C",compound 0.316 µM,121% and 122%
same,"viability, T/C",compound 1 µM,131% and 149%
same,"viability, T/C",compound 3.16 µM,174% and 201%
same,"viability, T/C",compound 10 µM,161% and 180%
same,IC50,curve of compound,> 10000 nM
O=c1[nH]cc(F)c(=O)[nH]1 + CN1CCN(c2cc(C(=O)Nc3cc4cc(-c5cnn(C)c5)ccc4cn3)ccn2)CC1,IC50,[1],3800 nM
same,IC50,[2],3350 nM
same,IC50,[3],< 31.6 nM
same,IC50,[4],< 31.6 nM
same,IC50,[5],< 31.6 nM
same,IC50,[6],< 31.6 nM
same,"viability, T/C",[7],109%
same,"viability, T/C",[8],102%
same,"viability, T/C",[9],96.8%
same,"viability, T/C",[10],64.4%
same,"viability, T/C",[11],56.9%
same,"viability, T/C",[12],41.1%
same,"viability, T/C",[13],82.2%
same,"viability, T/C",[14],90.6%
same,"viability, T/C",[15],85.6%
same,"viability, T/C",[16],68.1%
same,"viability, T/C",[17],52.4%
same,"viability, T/C",[18],39.7%
same,"viability, T/C",[19],10.1%
same,"viability, T/C",[20],12.3%
same,"viability, T/C",[21],9.14%
same,"viability, T/C",[22],11.6%
same,"viability, T/C",[23],14.1%
same,"viability, T/C",[24],6.87%
same,"viability, T/C",[25],0.14%
same,"viability, T/C",[26],0.18%
same,"viability, T/C",[27],0.21%
same,"viability, T/C",[28],0.12%
same,"viability, T/C",[29],0.19%
same,"viability, T/C",[30],0.15%
same,"viability, T/C",[31],0.72%
same,"viability, T/C",[32],0.53%
same,"viability, T/C",[33],0.97%
same,"viability, T/C",[34],0.5%
same,"viability, T/C",[35],1.23%
same,"viability, T/C",[36],0.45%
same,"viability, T/C",[37],0.21%
same,"viability, T/C",[38],0.23%
same,"viability, T/C",[39],0.37%
same,"viability, T/C",[40],0.21%
same,"viability, T/C",[41],0.32%
same,"viability, T/C",[42],0.2%
O=C(c1cc(Cc2n[nH]c(=O)c3ccccc23)ccc1F)N1CCN(C(=O)C2CC2)CC1 + CN1CCN(c2cc(C(=O)Nc3cc4cc(-c5cnn(C)c5)ccc4cn3)ccn2)CC1,IC50,[1],> 10000 nM
same,IC50,[2],> 10000 nM
same,IC50,[3],< 31.6 nM
same,IC50,[4],< 31.6 nM
same,IC50,[5],< 31.6 nM
same,IC50,[6],< 31.6 nM
same,"viability, T/C",[7],97.5%
same,"viability, T/C",[8],93.4%
same,"viability, T/C",[9],94.5%
same,"viability, T/C",[10],119%
same,"viability, T/C",[11],106%
same,"viability, T/C",[12],91.2%
same,"viability, T/C",[13],79.5%
same,"viability, T/C",[14],82%
same,"viability, T/C",[15],86.8%
same,"viability, T/C",[16],89.6%
same,"viability, T/C",[17],83.5%
same,"viability, T/C",[18],80.8%
same,"viability, T/C",[19],7.7%
same,"viability, T/C",[20],9.07%
same,"viability, T/C",[21],12.2%
same,"viability, T/C",[22],13.9%
same,"viability, T/C",[23],9.53%
same,"viability, T/C",[24],7.3%
same,"viability, T/C",[25],0.24%
same,"viability, T/C",[26],0.27%
same,"viability, T/C",[27],0.24%
same,"viability, T/C",[28],0.2%
same,"viability, T/C",[29],2.03%
same,"viability, T/C",[30],0.16%
same,"viability, T/C",[31],0.76%
same,"viability, T/C",[32],0.67%
same,"viability, T/C",[33],1.9%
same,"viability, T/C",[34],0.61%
same,"viability, T/C",[35],1.44%
same,"viability, T/C",[36],0.45%
same,"viability, T/C",[37],0.43%
same,"viability, T/C",[38],0.39%
same,"viability, T/C",[39],0.38%
same,"viability, T/C",[40],0.33%
same,"viability, T/C",[41],0.7%
same,"viability, T/C",[42],0.32%
